Results as given in patent US6531511B1, “2-adamantanemethanamine compounds for treating abnormalities in glutamatergic transmission” (Vernalis Research Limited, priority 1999, dated 2003).
Where a name gives a salt, the structure may show the parent alone.

Row | SMILES | melting point
1 | Cc1ccccc1C1(CN)C2CC3CC(C2)CC1C3 (stereo not shown) (as salt: hydrochloride) | 270 to 271 °C
2 | CCc1cccc(C2(CN)C3CC4CC(C3)CC2C4)c1 (stereo not shown) (as salt: hydrochloride) [Example 1, 2-(3-Ethylphenyl)-2-adamantanemethanamine hydrochloride] | 89 to 90 °C
3 | Cc1cccc(C2(CN)C3CC4CC(C3)CC2C4)c1 (stereo not shown) (as salt: hydrochloride) [Example 2, 2-(3-Methylphenyl)-2-adamantanemethanamine hydrochloride] | 242 to 243 °C
4 | NCC1(c2ccccc2)C2CC3CC(C2)CC1C3 (stereo not shown) (as salt: hydrochloride) [Example 3, 2-Phenyl-2-adamantanemethanamine hydrochloride] | 253 to 255 °C
5 | Cc1ccc(C2(CN)C3CC4CC(C3)CC2C4)cc1 (stereo not shown) (as salt: hydrochloride) [Example 4, 2-(4-Methylphenyl)-2-adamantanemethanamine hydrochloride] | 261 to 263 °C
6 | NCC1(c2ccc(F)cc2)C2CC3CC(C2)CC1C3 (stereo not shown) (as salt: hydrochloride) [Example 6, 2-(4-Fluorophenyl)-2-adamantanemethanamine hydrochloride] | 262 to 263 °C
7 | NCC1(c2ccc(Cl)cc2)C2CC3CC(C2)CC1C3 (stereo not shown) (as salt: hydrochloride) [Example 7, 2-(4-Chlorophenyl)-2-adamantanemethanamine hydrochloride] | > 300 °C
8 | COc1ccc(C2(CN)C3CC4CC(C3)CC2C4)cc1 (stereo not shown) (as salt: hydrochloride) [Example 8, 2-(4-Methoxyphenyl)-2-adamantanemethanamine hydrochloride] | 234 to 235 °C
9 | NCC1(c2ccc(C(F)(F)F)cc2)C2CC3CC(C2)CC1C3 (stereo not shown) (as salt: hydrochloride) [Example 9, 2-(4-Trifluoromethylphenyl)-2-adamantanemethanamine hydrochloride] | 279 to 281 °C
10 | NCC1(c2cccs2)C2CC3CC(C2)CC1C3 (stereo not shown) (as salt: hydrochloride) [Example 10, 2-(2-Thienyl)-2-adamantanemethanamine hydrochloride] | 255 to 257 °C
